Data from US12122761B2, “2-azaspiro[3.4]octane derivatives as M4 agonists” (NOVARTIS AG, priority 2019, dated 2024).

Columns and labels:
Assay type in all cases: cell-based
[1] = molecular target: T1, human cloned CHRM3 receptor (M3_CHO cells) (Homo sapiens, UniProt P20309); assay: CHRM3 Ca++ Flux Assay (agonist mode, FDSS 7000EX); conditions: for Emax / M3 FDSS PA: Percent Activity measured to EC100 of Carbachol; for Emax: read-out: M3 FDSS PA; for EC50: agonist mode, geometric mean if tested more than once, read-out: M3 FDSS EC50
T1 construct: expressed in transfected cells; host or cells: CHO-K1
Method in brief: (§1)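 Fluorescent intracellular Ca++ signal, recorded for 3 min, served as read-out for CHO-K1 cells stably carrying human M3 or M5 receptor. Triplicate 11-point dose responses were averaged and fitted to a four-parameter model, with percent activity referenced to the carbachol EC100.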

[2] = molecular target: T2, human cloned CHRM5 receptor (M5_CHO) (Homo sapiens, UniProt P08912); assay: CHRM5 Ca++ Flux Assay (agonist mode, FDSS 7000EX); conditions: for Emax / M5 FDSS PA: Percent Activity measured to EC100 of Carbachol; for Emax: read-out: M5 FDSS PA; for EC50: agonist mode, geometric mean if tested more than once, read-out: M5 FDSS EC50
T2 construct: expressed in transfected cells; host or cells: CHO (M5_CHO)
T2 sequence (P08912 1-532): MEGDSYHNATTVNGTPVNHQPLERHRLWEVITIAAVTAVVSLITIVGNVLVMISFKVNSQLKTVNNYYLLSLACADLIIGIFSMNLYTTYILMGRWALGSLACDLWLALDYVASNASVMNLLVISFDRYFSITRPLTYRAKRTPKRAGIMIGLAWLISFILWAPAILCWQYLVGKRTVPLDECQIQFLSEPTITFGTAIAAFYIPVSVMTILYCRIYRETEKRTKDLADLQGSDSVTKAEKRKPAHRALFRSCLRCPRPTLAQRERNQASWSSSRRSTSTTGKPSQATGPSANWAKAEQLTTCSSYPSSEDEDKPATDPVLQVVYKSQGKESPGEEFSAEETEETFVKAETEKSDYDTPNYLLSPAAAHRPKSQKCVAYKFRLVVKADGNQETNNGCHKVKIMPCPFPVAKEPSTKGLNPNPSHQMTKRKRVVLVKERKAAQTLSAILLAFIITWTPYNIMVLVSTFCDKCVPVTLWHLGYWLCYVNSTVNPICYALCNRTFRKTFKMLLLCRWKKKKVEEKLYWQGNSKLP
Method in brief: as §1

[3] = molecular target: T3, human cloned CHRM2 receptor (M2_CHO cells) (Homo sapiens, UniProt P08172); assay: CHRM2 Ca++ Flux Assay (agonist mode, FDSS 7000EX); conditions: for Emax / M2 FDSS PA: Percent Activity measured to EC100 of Carbachol; for Emax: read-out: M2 FDSS PA; for EC50: agonist mode, geometric mean if tested more than once, read-out: M2 FDSS EC50
T3 construct: expressed in transfected cells; host or cells: CHO-K1
T3 sequence (P08172 1-466): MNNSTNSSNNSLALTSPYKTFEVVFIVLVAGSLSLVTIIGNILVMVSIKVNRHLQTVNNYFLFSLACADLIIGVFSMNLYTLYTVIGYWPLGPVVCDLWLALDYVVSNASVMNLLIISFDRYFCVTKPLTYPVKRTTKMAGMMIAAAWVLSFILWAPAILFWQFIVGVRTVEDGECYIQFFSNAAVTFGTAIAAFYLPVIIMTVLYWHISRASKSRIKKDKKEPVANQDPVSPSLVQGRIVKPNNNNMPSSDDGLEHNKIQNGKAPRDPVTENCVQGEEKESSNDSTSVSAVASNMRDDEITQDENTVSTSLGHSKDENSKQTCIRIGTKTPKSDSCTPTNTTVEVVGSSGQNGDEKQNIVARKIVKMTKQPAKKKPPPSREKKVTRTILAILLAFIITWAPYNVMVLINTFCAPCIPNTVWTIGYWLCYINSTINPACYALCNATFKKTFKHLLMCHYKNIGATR
Method in brief: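 Response expressed as percent activity versus the Carbachol EC100, with curves fitted by four-parameter non-linear regression of triplicates. Stable M2_CHO cells were Ca++ dye-loaded and preincubated 60 min at room temperature in assay buffer containing 20 μM ATP; signal imaged for 3 minutes after compound.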

T1 sequence (P20309 whole entry): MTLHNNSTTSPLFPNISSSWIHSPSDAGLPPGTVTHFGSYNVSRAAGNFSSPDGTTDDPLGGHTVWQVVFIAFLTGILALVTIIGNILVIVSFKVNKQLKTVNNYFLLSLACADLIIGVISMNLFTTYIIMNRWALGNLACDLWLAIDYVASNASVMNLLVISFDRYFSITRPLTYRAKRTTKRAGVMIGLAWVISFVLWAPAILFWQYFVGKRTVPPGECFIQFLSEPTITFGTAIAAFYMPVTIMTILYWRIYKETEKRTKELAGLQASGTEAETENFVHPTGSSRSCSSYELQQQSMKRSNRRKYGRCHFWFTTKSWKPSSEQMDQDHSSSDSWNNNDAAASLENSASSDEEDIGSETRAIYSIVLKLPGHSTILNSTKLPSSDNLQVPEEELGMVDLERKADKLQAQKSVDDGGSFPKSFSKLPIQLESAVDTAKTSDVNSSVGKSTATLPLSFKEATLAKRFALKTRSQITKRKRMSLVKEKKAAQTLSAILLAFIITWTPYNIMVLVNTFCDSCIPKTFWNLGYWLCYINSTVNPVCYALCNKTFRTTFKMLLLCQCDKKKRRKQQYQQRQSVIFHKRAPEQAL

Row | Emax [1] [%] | EC50 [1] [µM] | Emax [2] [%] | EC50 [2] [µM] | Emax [3] [%] | M3 FDSS PA [1] [%] | M5 FDSS PA [2] [%] | M2 FDSS PA [3] [%] | EC50 [3] [µM] | Compound
1 | 0 | > 25 | 1 | > 25 | 0 |  |  |  |  | COc1ccccc1C1CCN([C@@H]2CCC3(C2)CN(c2cc(Cl)nnc2Cl)C3)CC1 [Example 5R, (R)-2-(3,6-dichloropyridazin-4-yl)-6-(4-(2-methoxyphenyl)piperidin-1-yl)-2-azaspiro[3.4]octane]
2 |  | > 25 |  | > 25 |  | 0 | 0 | 0 |  | O=C(N1CC2(CC[C@@H](N3CCC(c4cc(F)ccc4OC4CC5(COC5)C4)CC3)C2)C1)C1(F)CC1 (single isomer, unassigned) [Example 11B, (R)-(6-(4-(2-((2-oxaspiro[3.3]heptan-6-yl)oxy)-5-fluorophenyl)piperidin-1-yl)-2-azaspiro[3.4]octan-2-yl)(1-fluorocyclopropyl)methanone or (S)-(6-(4-(2-((2-oxaspiro[3.3]heptan-6-yl)oxy)-5-fluorophenyl)piperidin-1-yl)-2-azaspiro[3.4]octan-2-yl)(1-fluorocyclopropyl)methanone]
3 | 0 | > 25 | 0 | > 25 | 49 |  |  |  | 13.2 | COc1ccccc1C1CCN([C@@H]2CCC3(C2)CN(c2nccnc2C(F)(F)F)C3)CC1 [Example 5I, (R)-6-(4-(2-methoxyphenyl)piperidin-1-yl)-2-(3-(trifluoromethyl)pyrazin-2-yl)-2-azaspiro[3.4]octane]
4 |  | > 25 |  | > 25 |  | 0 | 0 | 0 |  | Cc1ncc(COc2ccccc2C2CCN([C@@H]3CCC4(C3)CN(C(=O)C3(F)CC3)C4)CC2)o1 (single isomer, unassigned) [Example 7V, (R)-(1-fluorocyclopropyl)(6-(4-(2-((2-methyloxazol-5-yl)methoxy)phenyl)piperidin-1-yl)-2-azaspiro[3.4]octan-2-yl)methanone or (S)-(1-fluorocyclopropyl)(6-(4-(2-((2-methyloxazol-5-yl)methoxy)phenyl)piperidin-1-yl)-2-azaspiro[3.4]octan-2-yl)methanone]
5 |  | > 25 |  | > 25 |  | 0 | 0 | 0 |  | Fc1ccc(OC2CCOCC2)c(C2CCN([C@@H]3CCC4(C3)CN(c3cncnc3)C4)CC2)c1 (single isomer, unassigned) [Example 10G, (R)-6-(4-(5-fluoro-2-((tetrahydro-2H-pyran-4-yl)oxy)phenyl)piperidin-1-yl)-2-(pyrimidin-5-yl)-2-azaspiro[3.4]octane or (S)-6-(4-(5-fluoro-2-((tetrahydro-2H-pyran-4-yl)oxy)phenyl)piperidin-1-yl)-2-(pyrimidin-5-yl)-2-azaspiro[3.4]octane]
6 | 0 | > 25 | 0 | > 25 | 0 |  |  |  |  | COc1ccccc1C1CCN([C@@H]2CCC3(C2)CN(c2nccnc2C)C3)CC1 [Example 5J, (R)-6-(4-(2-methoxyphenyl)piperidin-1-yl)-2-(3-methylpyrazin-2-yl)-2-azaspiro[3.4]octane]
7 |  | > 25 |  | 0.077 |  | 0 | 8 | 0 |  | Cc1nnc(COc2ccccc2C2CCN([C@@H]3CCC4(C3)CN(C(=O)C3(F)CC3)C4)CC2)o1 (single isomer, unassigned) [Example 7W, (R)-(1-fluorocyclopropyl)(6-(4-(2-((5-methyl-1,3,4-oxadiazol-2-yl)methoxy)phenyl)piperidin-1-yl)-2-azaspiro[3.4]octan-2-yl)methanone or (S)-(1-fluorocyclopropyl)(6-(4-(2-((5-methyl-1,3,4-oxadiazol-2-yl)methoxy)phenyl)piperidin-1-yl)-2-azaspiro[3.4]octan-2-yl)methanone]
8 |  | > 25 |  | > 25 |  | −1 | 0 | 0 |  | O=C(N1CC2(CC[C@@H](N3CCC(c4cc(F)ccc4C4CCOCC4)CC3)C2)C1)C1(F)CC1 (single isomer, unassigned) [Example 9K, (R)-(6-(4-(5-fluoro-2-(tetrahydro-2H-pyran-4-yl)phenyl)piperidin-1-yl)-2-azaspiro[3.4]octan-2-yl)(1-fluorocyclopropyl)methanone or (S)-(6-(4-(5-fluoro-2-(tetrahydro-2H-pyran-4-yl)phenyl)piperidin-1-yl)-2-azaspiro[3.4]octan-2-yl)(1-fluorocyclopropyl)methanone]
9 |  | > 25 |  | > 25 |  | 0 | 0 | 0 |  | Fc1ccc(OC2CC3(COC3)C2)c(C2CCN([C@@H]3CCC4(C3)CN(c3cncnc3)C4)CC2)c1 (single isomer, unassigned) [Example 10F, (R)-6-(4-(2-((2-oxaspiro[3.3]heptan-6-yl)oxy)-5-fluorophenyl)piperidin-1-yl)-2-(pyrimidin-5-yl)-2-azaspiro[3.4]octane or (S)-6-(4-(2-((2-oxaspiro[3.3]heptan-6-yl)oxy)-5-fluorophenyl)piperidin-1-yl)-2-(pyrimidin-5-yl)-2-azaspiro[3.4]octane]
10 | 0 | > 25 | 0 | > 25 | 0 |  |  |  |  | COc1ccccc1C1CCN([C@@H]2CCC3(C2)CN(c2cccnn2)C3)CC1 [Example 5O, (R)-6-(4-(2-methoxyphenyl)piperidin-1-yl)-2-(pyridazin-3-yl)-2-azaspiro[3.4]octane]
11 |  | 12.4 |  | > 25 |  | 2 | 2 | 44 | 13.2 | FC(F)(F)Oc1ccccc1C1CCN([C@@H]2CCC3(C2)CN(c2ncco2)C3)CC1 (single isomer, unassigned) [Example 10L, (R)-2-(6-(4-(2-(trifluoromethoxy)phenyl)piperidin-1-yl)-2-azaspiro[3.4]octan-2-yl)oxazole or (S)-2-(6-(4-(2-(trifluoromethoxy)phenyl)piperidin-1-yl)-2-azaspiro[3.4]octan-2-yl)oxazole]
12 |  | > 25 |  | > 25 |  | 0 | 0 | 0 |  | COc1ccc(Cl)cc1C1CCN([C@H]2CCC3(C2)CN(C(=O)C2(F)CC2)C3)CC1 (single isomer, unassigned) [Example 8A, (S)-(6-(4-(5-chloro-2-methoxyphenyl)piperidin-1-yl)-2-azaspiro[3.4]octan-2-yl)(1-fluorocyclopropyl)methanone or (R)-(6-(4-(5-chloro-2-methoxyphenyl)piperidin-1-yl)-2-azaspiro[3.4]octan-2-yl)(1-fluorocyclopropyl)methanone]
13 | 0 | > 25 | 0 | > 25 | 0 |  |  |  |  | CC(C)(O)COc1ccccc1C1CCN([C@@H]2CCC3(C2)CN(c2cncnc2)C3)CC1 [Example 5B, (R)-2-methyl-1-(2-(1-(2-(pyrimidin-5-yl)-2-azaspiro[3.4]octan-6-yl)piperidin-4-yl)phenoxy)propan-2-ol]
14 | 0 | > 25 | 0 | > 25 | 0 |  |  |  |  | COc1ccccc1C1CCN([C@@H]2CCC3(C2)CN(c2ccc(C)nc2)C3)CC1 [Example 5D, (R)-6-(4-(2-methoxyphenyl)piperidin-1-yl)-2-(6-methylpyridin-3-yl)-2-azaspiro[3.4]octane]
